Test system: tobacco budworm (Heliothis virescens [Fabricius])
Assay: surface-treated diet test against the tobacco budworm
Format: in vivo
Details: tobacco budworm second instar larvae, surface-treated diet, 0.25 millimoles of candidate insecticide on the surface of the diet, five-day exposure; for Percent Mortality: compared to total number of insects infested; for Percent Growth Inhibition: inhibition of insect weight relative to untreated controls
In short: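 Wheat germ artificial diet surface-treated with 40 µL of 50 mM DMSO stock diluted 1:7 in 1:1 water/acetone (0.25 millimolar on diet), or sub-multiples for rate tests. One second-instar larva per well, 25° C, 60% RH, 5 days; percent weight inhibition vs DMSO controls and percent mortality.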

Structure (SMILES) | Percent Mortality | Percent Growth Inhibition
O=C(Nc1ccc(C(F)(F)F)nc1)OC(c1ccc(C(F)(F)F)cc1)C1CCN(Cc2ccc(Oc3ccccn3)cc2)CC1 (stereo not drawn) [Compound 448] | 100% | 100%
O=C(Nc1ccncc1)OC(c1ccc(C(F)(F)F)cc1)C1CCN(Cc2ccc(Oc3ccccn3)cc2)CC1 (stereo not drawn) [Compound 450] | 0% | 62%
O=C(Nc1cc(Cl)nc(Cl)c1)OC(c1ccc(C(F)(F)F)cc1)C1CCN(Cc2ccc(Oc3ccccn3)cc2)CC1 (stereo not drawn) [Compound 451] | 100% | 100%
FC(F)(F)c1ccc(C(Oc2ccc(Cl)nn2)C2CCN(Cc3ccc(Oc4ccccn4)cc3)CC2)cc1 (stereo not drawn) [Compound 452] | 67% | 100%
Cn1nnc(-c2ccc(CN3CCC(C(Oc4ccc(Cl)nn4)c4ccc(OC(F)(F)F)cc4)CC3)cc2)n1 (stereo not drawn) [Compound 453] | 83% | 100%
CCON=Cc1ccc(CN2CCC(C(Oc3ccc(C(F)(F)F)cc3)c3ccc(C(F)(F)F)cc3)CC2)cc1 (stereo not drawn) [Compound 454] | 100% | 100%
FC(F)(F)c1ccc(OC(c2ccc(C(F)(F)F)cc2)C2CCN(Cc3ccc(Oc4ccccn4)cc3)CC2)cc1 (stereo not drawn) [Compound 455] | 100% | 100%
FC(F)(F)Oc1ccc(C(Oc2ccc(C(F)(F)F)cc2)C2CCN(Cc3ccc(Oc4ncccn4)cc3)CC2)cc1 (stereo not drawn) [Compound 456] | 17% | 100%
CC(C)OC(=O)Nc1ccc(COC(c2ccc(C(F)(F)F)cc2)C2CCN(Cc3ccc(NC(=O)OC(C)C)cc3)CC2)cc1 (stereo not drawn) [Compound 457] | 0% | 16%
O=C(Nc1ccc(F)cc1)OC(c1ccc(OC(F)(F)F)cc1)C1CCN(Cc2ccccc2)CC1 (stereo not drawn) [Compound 458] | 0% | 94%
O=C(Nc1ccc(F)cc1)OC(c1ccc(OC(F)(F)F)cc1)C1CCN(Cc2ccc(Cl)cc2)CC1 (stereo not drawn) [Compound 459] | 0% | 99%
O=C(Nc1cc(F)cc(F)c1)OC(c1ccc(OC(F)(F)F)cc1)C1CCN(Cc2ccc(Cl)cc2)CC1 (stereo not drawn) [Compound 460] | 0% | 100%
O=C(Nc1cc(F)cc(F)c1)OC(c1ccc(OC(F)(F)F)cc1)C1CCN(Cc2ccc(F)cc2)CC1 (stereo not drawn) [Compound 461] | 0% | 98%
O=C(Nc1cc(F)cc(F)c1)OC(c1ccc(OC(F)(F)F)cc1)C1CCN(Cc2ccc(I)cc2)CC1 (stereo not drawn) [Compound 462] | 83% | 100%
O=C(Nc1ccc(Cl)cc1)OC(c1ccc(C(F)(F)F)cc1)C1CCN(Cc2ccc(O)cc2)CC1 (stereo not drawn) [Compound 463] | 0% | 65%
O=C(Nc1cc(F)cc(F)c1)OC(c1ccc(C(F)(F)F)cc1)C1CCN(Cc2ccc(O)cc2)CC1 (stereo not drawn) [Compound 464] | 0% | 63%
Nc1ccc(CN2CCC(C(OC(=O)Nc3ccc(Cl)cc3)c3ccc(C(F)(F)F)cc3)CC2)cc1 (stereo not drawn) [Compound 465] | 0% | 92%
Nc1ccc(CN2CCC(C(OC(=O)Nc3cc(F)cc(F)c3)c3ccc(C(F)(F)F)cc3)CC2)cc1 (stereo not drawn) [Compound 466] | 17% | 77%
CCCCCc1ccc(CN2CCC(C(OC(=O)Nc3cc(F)cc(F)c3)c3ccc(C(F)(F)F)cc3)CC2)cc1 (stereo not drawn) [Compound 467] | 0% | 68%
COc1ccc(CN2CCC(C(OC(=O)Nc3ccc(F)cc3)c3ccc(OC(F)(F)F)cc3)CC2)cc1 (stereo not drawn) [Compound 468] | 33% | 100%
COc1ccc(CN2CCC(C(OC(=O)Nc3cc(F)cc(F)c3)c3ccc(OC(F)(F)F)cc3)CC2)cc1 (stereo not drawn) [Compound 469] | 17% | 100%
CCCOc1ccc(CN2CCC(C(OC(=O)Nc3ccc(Cl)cc3)c3ccc(Cl)cc3)CC2)cc1 (stereo not drawn) [Compound 470] | 100% | 100%
CCCOc1ccc(CN2CCC(C(OC(=O)Nc3ccc(F)cc3)c3ccc(Cl)cc3)CC2)cc1 (stereo not drawn) [Compound 471] | 100% | 100%
CCCOc1ccc(CN2CCC(C(OC(=O)Nc3cccc(C(F)(F)F)c3)c3ccc(Cl)cc3)CC2)cc1 (stereo not drawn) [Compound 472] | 100% | 100%
CCCOc1ccc(CN2CCC(C(OC(=O)Nc3ccc(C(F)(F)F)cc3)c3ccc(Cl)cc3)CC2)cc1 (stereo not drawn) [Compound 473] | 100% | 100%
CCCOc1ccc(CN2CCC(C(OC(=O)Nc3cc(F)cc(F)c3)c3ccc(Cl)cc3)CC2)cc1 (stereo not drawn) [Compound 474] | 100% | 100%

Structure (SMILES) | Percent Mortality | Percent Growth Inhibition
CCCOc1ccc(CN2CCC(C(OC(=O)Nc3ccc(Cl)cc3)c3ccc(F)cc3)CC2)cc1 (stereo not drawn) [Compound 475] | 100% | 100%
CCCOc1ccc(CN2CCC(C(OC(=O)Nc3ccc(F)cc3)c3ccc(F)cc3)CC2)cc1 (stereo not drawn) [Compound 476] | 100% | 100%
CCCOc1ccc(CN2CCC(C(OC(=O)Nc3cccc(C(F)(F)F)c3)c3ccc(F)cc3)CC2)cc1 (stereo not drawn) [Compound 477] | 100% | 100%
CCCOc1ccc(CN2CCC(C(OC(=O)Nc3ccc(C(F)(F)F)cc3)c3ccc(F)cc3)CC2)cc1 (stereo not drawn) [Compound 478] | 100% | 100%
CCCOc1ccc(CN2CCC(C(OC(=O)Nc3cc(F)cc(F)c3)c3ccc(F)cc3)CC2)cc1 (stereo not drawn) [Compound 479] | 100% | 100%
CCCOc1ccc(CN2CCC(C(OC(=O)Nc3ccc(Cl)cc3)c3ccc(Cl)c(Cl)c3)CC2)cc1 (stereo not drawn) [Compound 480] | 100% | 100%
CCCOc1ccc(CN2CCC(C(OC(=O)Nc3ccc(F)cc3)c3ccc(Cl)c(Cl)c3)CC2)cc1 (stereo not drawn) [Compound 481] | 100% | 100%
CCCOc1ccc(CN2CCC(C(OC(=O)Nc3cc(F)cc(F)c3)c3ccc(Cl)c(Cl)c3)CC2)cc1 (stereo not drawn) [Compound 482] | 100% | 100%
CCCOc1ccc(CN2CCC(C(OC(=O)Nc3cccc(C(F)(F)F)c3)c3ccc(Cl)c(Cl)c3)CC2)cc1 (stereo not drawn) [Compound 483] | 100% | 100%
CCCOc1ccc(CN2CCC(C(OC(=O)Nc3ccc(C(F)(F)F)cc3)c3ccc(Cl)c(Cl)c3)CC2)cc1 (stereo not drawn) [Compound 484] | 100% | 100%
CCCOc1ccc(CN2CCC(C(OC(=O)Nc3ccc(Cl)cc3)c3cccc(C(F)(F)F)c3)CC2)cc1 (stereo not drawn) [Compound 485] | 100% | 100%
CCCOc1ccc(CN2CCC(C(OC(=O)Nc3ccc(F)cc3)c3cccc(C(F)(F)F)c3)CC2)cc1 (stereo not drawn) [Compound 486] | 100% | 100%
CCCOc1ccc(CN2CCC(C(OC(=O)Nc3cc(F)cc(F)c3)c3cccc(C(F)(F)F)c3)CC2)cc1 (stereo not drawn) [Compound 487] | 100% | 100%
CCCOc1ccc(CN2CCC(C(OC(=O)Nc3cccc(C(F)(F)F)c3)c3cccc(C(F)(F)F)c3)CC2)cc1 (stereo not drawn) [Compound 488] | 100% | 100%
CCCOc1ccc(CN2CCC(C(OC(=O)Nc3ccc(C(F)(F)F)cc3)c3cccc(C(F)(F)F)c3)CC2)cc1 (stereo not drawn) [Compound 489] | 100% | 100%
CCCOc1ccc(CN2CCC(C(OC(=O)Nc3ccc(Cl)cc3)c3ccc(C(F)(F)F)cc3)CC2)cc1 (stereo not drawn) [Compound 490] | 100% | 100%
CCCOc1ccc(CN2CCC(C(OC(=O)Nc3cc(F)cc(F)c3)c3ccc(C(F)(F)F)cc3)CC2)cc1 (stereo not drawn) [Compound 491] | 100% | 100%
CC(C)OC(=O)c1ccc(CN2CCC(C(OC(=O)Nc3ccc(Cl)cc3)c3ccc(C(F)(F)F)cc3)CC2)cc1 (stereo not drawn) [Compound 492] | 100% | 100%
CC(C)OC(=O)c1ccc(CN2CCC(C(OC(=O)Nc3cc(F)cc(F)c3)c3ccc(C(F)(F)F)cc3)CC2)cc1 (stereo not drawn) [Compound 493] | 100% | 100%
CC(=O)Nc1ccc(CN2CCC(C(OC(=O)Nc3ccc(Cl)cc3)c3ccc(C(F)(F)F)cc3)CC2)cc1 (stereo not drawn) [Compound 494] | 0% | 77%
CC(=O)Nc1ccc(CN2CCC(C(OC(=O)Nc3cc(F)cc(F)c3)c3ccc(C(F)(F)F)cc3)CC2)cc1 (stereo not drawn) [Compound 495] | 0% | 98%
CC(C)C(=O)Nc1ccc(CN2CCC(C(OC(=O)Nc3cc(F)cc(F)c3)c3ccc(C(F)(F)F)cc3)CC2)cc1 (stereo not drawn) [Compound 496] | 100% | 100%
CC(C)(C)C(=O)Nc1ccc(CN2CCC(C(OC(=O)Nc3cc(F)cc(F)c3)c3ccc(C(F)(F)F)cc3)CC2)cc1 (stereo not drawn) [Compound 497] | 17% | 100%
COC(=O)Nc1ccc(CN2CCC(C(OC(=O)Nc3cc(F)cc(F)c3)c3ccc(C(F)(F)F)cc3)CC2)cc1 (stereo not drawn) [Compound 498] | 100% | 100%
CCOC(=O)Nc1ccc(CN2CCC(C(OC(=O)Nc3cc(F)cc(F)c3)c3ccc(C(F)(F)F)cc3)CC2)cc1 (stereo not drawn) [Compound 499] | 100% | 100%
